6 compounds from ChEMBL document CHEMBL3576762, “Ribifolin, an orbitide from Jatropha ribifolia, and its potential antimalarial activity” (J Nat Prod, 2015) can be followed below.

The test system of one data set is Plasmodium falciparum. The data set can be described thus: Antimalarial activity against chloroquine-sensitive Plasmodium falciparum 3D7 infected in erythrocytes by Giemsa-stained blood smears under microscopy. In kind it is functional, organism-based.
In a further data set the test system is HEK-293T. Description: Cytotoxicity against human HEK293T cells at 0.001 to 100 uM after 48 hrs by MTT assay. It counts as cell-based. On the technique in general: Formazan colour is commonly taken as a measure of viable cells.

Where a SMILES comes first, the peptide text is derived from it.

`CC[C@H](C)[C@@H]1NC(=O)[C@H](C)NC(=O)[C@H](CC(C)C)NC(=O)[C@H]([C@@H](C)CC)NC(=O)[C@@H]2CCCN2C(=O)[C@H]([C@@H](C)CC)NC(=O)CNC(=O)[C@H](CCSC)NC1=O` (cyclo(AIMGIPIL)): in the data set with Plasmodium falciparum, the IC50 (in general, the concentration needed to halve the response being measured) came to 9 µM.
Same read-out and setting: the result for `C[C@@H](O)[C@@H]1NC(=O)CNC(=O)[C@H](Cc2ccccc2)NC(=O)[C@H](Cc2ccccc2)NC(=O)CNC(=O)[C@H](Cc2ccccc2)NC(=O)[C@H](Cc2ccccc2)NC1=O` (cyclo(FFGFFGT)) reads 2 µM; that for `CC[C@H](C)[C@@H]1NC(=O)[C@H]([C@@H](C)O)NC(=O)CNC(=O)[C@H](Cc2ccccc2)NC(=O)[C@H](C(C)C)NC(=O)CNC(=O)[C@H](CC(C)C)NC1=O` (cyclo(FGTILGV)), 16 µM.
With `CC[C@H](C)[C@@H]1NC(=O)CNC(=O)[C@H](CC(C)C)NC(=O)[C@H]([C@@H](C)CC)NC(=O)[C@H]([C@@H](C)CC)NC(=O)[C@H](CO)NC(=O)CNC(=O)[C@H](CC(C)C)NC1=O` (cyclo(GILGSIIL)), the Activity result in the data set on HEK-293T was “Non-toxic”. Moreover, half-maximal inhibition in the data set on Plasmodium falciparum (IC50) required 42 µM.
`CC[C@H](C)[C@@H]1NC(=O)CNC(=O)[C@H](CC(C)C)NC(=O)[C@H](CC(C)C)NC(=O)[C@H]([C@@H](C)CC)NC(=O)[C@@H]2CCCN2C(=O)[C@H](CO)NC(=O)CNC(=O)[C@H](CC(C)C)NC1=O` (cyclo(GILGSPILL)) gave an IC50 in the data set on Plasmodium falciparum of 10000 µM.
Turning to H-ILGSIILG-OH, the Activity result in the data set on HEK-293T is “Non-toxic”. Also, inhibition in the data set with Plasmodium falciparum was half-maximal at 519 µM (IC50).
